Measured values as given in article PMC12090182, “Repurposing of the RIPK1-Selective Benzo[1,4]oxazepin-4-one Scaffold for the Development of a Type III LIMK1/2 Inhibitor” (ACS Chemical Biology, 2025).

Legend:
[1] = test system: EGFR(L747-T751del,Sins); type: binding
[2] = target: IRAK4 (Homo sapiens, UniProt Q9NWZ3); type: cell-based; details: HEK-293T; 1 μM inhibitor, HEK293T cells
Procedure: (§1) For plate preparation, a transfection mix was prepared in white 384-well small-volume plates (Greiner, cat. no. 784075) by preplating 3 μL of 20 μL/mL FuGene HD (Promega, cat. no. E2311), diluted in an Opti-MEM medium (Gibco, cat. no. 11058-021). One μL of DNA from both DNA vector source plates of the K192 kit was added using an Echo 550 acoustic dispenser (Beckman Coulter). The mix was incubated for 30 min, and 6 μL of HEK293T cells in an Opti-MEM medium was added. The proteins were allowed to express for 20 h. After expression, Tracer K10 was added using the concentrations recommended in the K192 technical manual and a 1 μM inhibitor was added to every second well. […] Five μL of substrate solution was added to every well, and filtered luminescence was measured on a PHERAstar plate reader (BMG Labtech) equipped with a luminescence filter pair (450 nm BP filter (donor) and a 610 nm LP filter (acceptor)). For every kinase, occupancy was calculated and plotted using GraphPad Prism 10 (Table S5).

[3] = target: HIPK2 (Homo sapiens, UniProt Q9H2X6); type: cell-based; details: HEK-293T; 1 μM inhibitor, HEK293T cells
Procedure: as §1

[4] = target: STK10 (Homo sapiens, UniProt O94804); type: cell-based; details: HEK-293T; 1 μM inhibitor, HEK293T cells
Procedure: as §1

[5] = target: TXK (Homo sapiens, UniProt P42681); type: cell-based; details: HEK-293T; 1 μM inhibitor, HEK293T cells
Procedure: as §1

[6] = target: TIE1 (Homo sapiens, UniProt P35590); type: cell-based; details: HEK-293T; 1 μM inhibitor, HEK293T cells
Procedure: as §1

[7] = target: RPS6KA2 (Homo sapiens, UniProt Q15349); type: cell-based; details: HEK-293T; 1 μM inhibitor, HEK293T cells
Procedure: as §1

[8] = target: LTK (Homo sapiens, UniProt P29376); type: cell-based; details: 1 μM inhibitor, HEK293T cells
Procedure: as §1

[9] = target: SLK (Homo sapiens, UniProt Q9H2G2); type: cell-based; details: HEK-293T; 1 μM inhibitor, HEK293T cells
Procedure: as §1

[10] = target: MAST4 (Homo sapiens, UniProt O15021); type: cell-based; details: HEK-293T; 1 μM inhibitor, HEK293T cells
Procedure: as §1

[11] = target: CDK9 (Homo sapiens, UniProt P50750); type: cell-based; details: HEK-293T; 1 μM inhibitor, HEK293T cells
Procedure: as §1

[12] = target: LCK (Homo sapiens, UniProt P06239); type: cell-based; details: HEK-293T; 1 μM inhibitor, HEK293T cells
Procedure: as §1

[13] = target: MYLK4 (Homo sapiens, UniProt Q86YV6); type: cell-based; details: HEK-293T; 1 μM inhibitor, HEK293T cells
Procedure: as §1

[14] = target: LRRK2 (Homo sapiens, UniProt Q5S007); type: cell-based; details: HEK-293T; 1 μM inhibitor, HEK293T cells
Procedure: as §1

[15] = target: NEK1 (Homo sapiens, UniProt Q96PY6); type: cell-based; details: HEK-293T; 1 μM inhibitor, HEK293T cells
Procedure: as §1

[16] = target: STK4 (Homo sapiens, UniProt Q13043); type: cell-based; details: HEK-293T; 1 μM inhibitor, HEK293T cells
Procedure: as §1

[17] = target: PHKG1 (Homo sapiens, UniProt Q16816); type: cell-based; details: HEK-293T; 1 μM inhibitor, HEK293T cells
Procedure: as §1

[18] = target: MKNK2 (Homo sapiens, UniProt Q9HBH9); type: cell-based; details: HEK-293T; 1 μM inhibitor, HEK293T cells
Procedure: as §1

[19] = target: ULK3 (Homo sapiens, UniProt Q6PHR2); type: cell-based; details: HEK-293T; 1 μM inhibitor, HEK293T cells
Procedure: as §1

[20] = target: STK38 (Homo sapiens, UniProt Q15208); type: cell-based; details: HEK-293T; 1 μM inhibitor, HEK293T cells
Procedure: as §1

[21] = target: EPHA4 (Homo sapiens, UniProt P54764); type: cell-based; details: HEK-293T; 1 μM inhibitor, HEK293T cells
Procedure: as §1

[22] = target: BRAF(V600E) (Homo sapiens, UniProt P15056, V600E); experiment: biochemical; type: binding; details: compound concentration 100 nM; Entrez BRAF; read-out: Percent Control
[23] = target: ABL1(F317L)-phosphorylated (Homo sapiens, UniProt P00519, F317L); experiment: biochemical; type: binding; details: read-out: Percent Control
[24] = target: BIKE (Homo sapiens, UniProt Q9NSY1); experiment: scanMAX KINOMEscan (Eurofins); type: binding; details: 1000 nM, read-out: Percent Control
Text: (§2) Supplement cb5c00097_si_002.xlsx, sheet "Table S6 (Eurofins Selectivity)" | column: Percent Control

[25] = target: LATS2 (Homo sapiens, UniProt Q9NRM7); experiment: scanMAX KINOMEscan (Eurofins); type: binding; details: 1000 nM, read-out: Percent Control
Text: as §2

[26] = target: HASPIN (Homo sapiens, UniProt Q8TF76); experiment: scanMAX KINOMEscan (Eurofins); type: binding; details: 1000 nM, read-out: Percent Control
Text: as §2

[27] = target: CSNK1A1L (Homo sapiens, UniProt Q8N752); experiment: scanMAX KINOMEscan (Eurofins); type: binding; details: 1000 nM, read-out: Percent Control
Text: as §2

[28] = target: CDC2L1 (Homo sapiens, UniProt P21127); experiment: scanMAX KINOMEscan (Eurofins); type: binding; details: 1000 nM, read-out: Percent Control
Text: as §2

[29] = target: MAP4K2 (Homo sapiens, UniProt Q12851); experiment: scanMAX KINOMEscan (Eurofins); type: binding; details: 1000 nM, read-out: Percent Control
Text: as §2

[30] = target: PRKCH (Homo sapiens, UniProt P24723); experiment: scanMAX KINOMEscan (Eurofins); type: binding; details: compound concentration 100 nM; Entrez PRKCH; read-out: Percent Control
Text: as §2

[31] = target: MAP4K4 (Homo sapiens, UniProt O95819); experiment: scanMAX KINOMEscan (Eurofins); type: binding; details: 1000 nM, read-out: Percent Control
Text: as §2

[32] = target: TEC (Homo sapiens, UniProt P42680); experiment: scanMAX KINOMEscan (Eurofins); type: binding; details: compound concentration 100 nM; Entrez TEC; read-out: Percent Control
Text: as §2

[33] = target: ULK2 (Homo sapiens, UniProt Q8IYT8); experiment: scanMAX KINOMEscan (Eurofins); type: binding; details: compound concentration 100 nM; Entrez ULK2; read-out: Percent Control
Text: as §2

LTK, sequence (P29376 17-864): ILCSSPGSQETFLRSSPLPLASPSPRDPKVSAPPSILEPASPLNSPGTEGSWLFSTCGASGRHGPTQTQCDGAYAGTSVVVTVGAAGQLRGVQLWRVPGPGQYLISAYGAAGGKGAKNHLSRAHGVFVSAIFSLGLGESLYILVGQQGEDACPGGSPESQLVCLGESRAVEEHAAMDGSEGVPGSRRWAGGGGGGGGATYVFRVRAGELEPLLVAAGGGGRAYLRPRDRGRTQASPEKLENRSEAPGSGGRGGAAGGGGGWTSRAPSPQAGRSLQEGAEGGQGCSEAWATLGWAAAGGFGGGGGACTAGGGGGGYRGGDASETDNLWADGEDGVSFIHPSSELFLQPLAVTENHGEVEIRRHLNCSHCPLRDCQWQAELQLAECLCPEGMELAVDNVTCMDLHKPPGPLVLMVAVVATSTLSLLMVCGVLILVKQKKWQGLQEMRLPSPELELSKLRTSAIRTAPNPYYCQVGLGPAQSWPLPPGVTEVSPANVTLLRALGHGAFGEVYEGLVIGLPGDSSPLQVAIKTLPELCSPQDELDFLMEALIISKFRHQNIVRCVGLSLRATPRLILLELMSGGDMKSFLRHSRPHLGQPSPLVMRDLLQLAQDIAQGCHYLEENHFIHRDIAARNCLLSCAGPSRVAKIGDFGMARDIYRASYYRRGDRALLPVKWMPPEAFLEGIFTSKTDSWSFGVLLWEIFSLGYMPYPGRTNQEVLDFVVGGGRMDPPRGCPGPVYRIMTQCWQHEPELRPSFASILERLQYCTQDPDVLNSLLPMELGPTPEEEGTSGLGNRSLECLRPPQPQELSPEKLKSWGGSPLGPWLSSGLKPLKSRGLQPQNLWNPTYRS
ULK2, sequence (Q8IYT8 whole entry): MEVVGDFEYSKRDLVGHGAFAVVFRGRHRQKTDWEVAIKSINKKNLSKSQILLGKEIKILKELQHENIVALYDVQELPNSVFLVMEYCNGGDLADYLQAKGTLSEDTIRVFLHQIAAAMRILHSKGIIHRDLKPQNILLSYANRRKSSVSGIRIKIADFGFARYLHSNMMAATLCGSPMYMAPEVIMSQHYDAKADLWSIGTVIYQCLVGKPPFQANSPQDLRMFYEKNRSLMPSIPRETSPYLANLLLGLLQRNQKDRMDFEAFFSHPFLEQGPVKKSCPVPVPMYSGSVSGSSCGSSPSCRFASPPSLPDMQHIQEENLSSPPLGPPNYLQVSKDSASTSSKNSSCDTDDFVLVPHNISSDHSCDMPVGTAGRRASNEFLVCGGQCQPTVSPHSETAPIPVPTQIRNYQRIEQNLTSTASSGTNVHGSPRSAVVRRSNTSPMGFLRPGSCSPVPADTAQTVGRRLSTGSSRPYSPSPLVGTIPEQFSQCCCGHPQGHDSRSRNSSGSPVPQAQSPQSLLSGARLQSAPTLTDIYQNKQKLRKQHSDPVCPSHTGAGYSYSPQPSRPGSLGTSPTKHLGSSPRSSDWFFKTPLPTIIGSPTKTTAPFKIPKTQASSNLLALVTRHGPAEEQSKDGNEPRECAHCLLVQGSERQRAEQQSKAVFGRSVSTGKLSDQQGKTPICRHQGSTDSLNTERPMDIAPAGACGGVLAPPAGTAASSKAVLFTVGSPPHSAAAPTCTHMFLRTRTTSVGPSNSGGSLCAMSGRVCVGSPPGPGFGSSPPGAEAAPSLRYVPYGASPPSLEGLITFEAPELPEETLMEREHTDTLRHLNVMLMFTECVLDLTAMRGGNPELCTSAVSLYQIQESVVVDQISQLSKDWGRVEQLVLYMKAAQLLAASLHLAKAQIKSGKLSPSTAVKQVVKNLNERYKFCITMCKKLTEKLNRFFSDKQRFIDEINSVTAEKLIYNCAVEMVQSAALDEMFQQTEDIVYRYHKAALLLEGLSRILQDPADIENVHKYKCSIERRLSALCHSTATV
NEK1, sequence (Q96PY6 whole entry): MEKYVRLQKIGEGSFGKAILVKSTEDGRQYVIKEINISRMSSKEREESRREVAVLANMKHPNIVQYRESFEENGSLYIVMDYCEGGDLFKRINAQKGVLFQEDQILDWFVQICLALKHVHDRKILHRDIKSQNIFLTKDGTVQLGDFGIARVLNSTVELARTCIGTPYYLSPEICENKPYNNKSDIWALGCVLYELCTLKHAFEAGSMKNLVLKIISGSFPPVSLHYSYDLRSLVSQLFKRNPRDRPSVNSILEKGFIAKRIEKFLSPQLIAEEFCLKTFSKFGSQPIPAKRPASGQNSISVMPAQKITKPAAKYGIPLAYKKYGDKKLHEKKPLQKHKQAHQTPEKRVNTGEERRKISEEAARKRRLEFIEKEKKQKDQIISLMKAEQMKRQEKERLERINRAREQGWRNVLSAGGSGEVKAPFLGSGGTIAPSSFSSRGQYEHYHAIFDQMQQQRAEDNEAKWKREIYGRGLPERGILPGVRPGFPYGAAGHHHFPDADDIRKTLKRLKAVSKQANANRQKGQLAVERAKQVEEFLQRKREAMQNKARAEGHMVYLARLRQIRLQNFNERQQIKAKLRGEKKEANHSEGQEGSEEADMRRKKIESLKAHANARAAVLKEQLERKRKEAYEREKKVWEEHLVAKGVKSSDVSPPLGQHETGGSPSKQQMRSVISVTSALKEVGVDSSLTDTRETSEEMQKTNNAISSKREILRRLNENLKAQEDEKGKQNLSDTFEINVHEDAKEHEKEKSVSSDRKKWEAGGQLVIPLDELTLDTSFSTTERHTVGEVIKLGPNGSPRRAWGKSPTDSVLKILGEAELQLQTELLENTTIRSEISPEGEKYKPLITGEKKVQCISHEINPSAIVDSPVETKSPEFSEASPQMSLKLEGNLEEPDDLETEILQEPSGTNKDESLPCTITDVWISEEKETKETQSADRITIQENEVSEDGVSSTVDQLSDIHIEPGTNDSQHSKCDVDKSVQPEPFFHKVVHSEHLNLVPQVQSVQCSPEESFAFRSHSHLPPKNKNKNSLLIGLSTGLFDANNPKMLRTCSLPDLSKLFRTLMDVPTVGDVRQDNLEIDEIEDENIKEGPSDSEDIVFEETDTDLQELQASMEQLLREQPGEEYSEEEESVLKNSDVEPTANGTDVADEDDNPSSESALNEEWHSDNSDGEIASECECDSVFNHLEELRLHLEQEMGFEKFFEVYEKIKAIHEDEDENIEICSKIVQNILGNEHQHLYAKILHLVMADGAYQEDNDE
BRAF(V600E), sequence (P15056 whole entry V600E): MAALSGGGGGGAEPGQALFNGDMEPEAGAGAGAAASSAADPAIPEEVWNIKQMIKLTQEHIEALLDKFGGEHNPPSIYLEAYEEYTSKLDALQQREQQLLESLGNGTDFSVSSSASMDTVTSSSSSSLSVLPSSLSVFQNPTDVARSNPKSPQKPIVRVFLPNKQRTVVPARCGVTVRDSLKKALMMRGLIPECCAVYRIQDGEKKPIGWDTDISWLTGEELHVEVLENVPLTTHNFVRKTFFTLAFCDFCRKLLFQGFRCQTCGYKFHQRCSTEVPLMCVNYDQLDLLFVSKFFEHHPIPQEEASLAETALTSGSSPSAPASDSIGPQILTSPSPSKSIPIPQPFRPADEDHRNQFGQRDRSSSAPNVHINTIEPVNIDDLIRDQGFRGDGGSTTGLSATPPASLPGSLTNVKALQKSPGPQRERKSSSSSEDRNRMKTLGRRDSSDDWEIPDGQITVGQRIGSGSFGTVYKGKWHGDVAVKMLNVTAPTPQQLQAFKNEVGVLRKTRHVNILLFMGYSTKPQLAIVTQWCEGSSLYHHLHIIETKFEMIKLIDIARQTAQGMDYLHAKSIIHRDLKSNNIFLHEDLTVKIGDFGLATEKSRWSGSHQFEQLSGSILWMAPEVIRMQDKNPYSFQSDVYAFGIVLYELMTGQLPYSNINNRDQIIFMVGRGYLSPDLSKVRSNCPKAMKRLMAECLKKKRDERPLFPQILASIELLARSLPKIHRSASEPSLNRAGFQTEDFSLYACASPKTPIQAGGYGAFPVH
ABL1(F317L)-phosphorylated, sequence (P00519 whole entry F317L): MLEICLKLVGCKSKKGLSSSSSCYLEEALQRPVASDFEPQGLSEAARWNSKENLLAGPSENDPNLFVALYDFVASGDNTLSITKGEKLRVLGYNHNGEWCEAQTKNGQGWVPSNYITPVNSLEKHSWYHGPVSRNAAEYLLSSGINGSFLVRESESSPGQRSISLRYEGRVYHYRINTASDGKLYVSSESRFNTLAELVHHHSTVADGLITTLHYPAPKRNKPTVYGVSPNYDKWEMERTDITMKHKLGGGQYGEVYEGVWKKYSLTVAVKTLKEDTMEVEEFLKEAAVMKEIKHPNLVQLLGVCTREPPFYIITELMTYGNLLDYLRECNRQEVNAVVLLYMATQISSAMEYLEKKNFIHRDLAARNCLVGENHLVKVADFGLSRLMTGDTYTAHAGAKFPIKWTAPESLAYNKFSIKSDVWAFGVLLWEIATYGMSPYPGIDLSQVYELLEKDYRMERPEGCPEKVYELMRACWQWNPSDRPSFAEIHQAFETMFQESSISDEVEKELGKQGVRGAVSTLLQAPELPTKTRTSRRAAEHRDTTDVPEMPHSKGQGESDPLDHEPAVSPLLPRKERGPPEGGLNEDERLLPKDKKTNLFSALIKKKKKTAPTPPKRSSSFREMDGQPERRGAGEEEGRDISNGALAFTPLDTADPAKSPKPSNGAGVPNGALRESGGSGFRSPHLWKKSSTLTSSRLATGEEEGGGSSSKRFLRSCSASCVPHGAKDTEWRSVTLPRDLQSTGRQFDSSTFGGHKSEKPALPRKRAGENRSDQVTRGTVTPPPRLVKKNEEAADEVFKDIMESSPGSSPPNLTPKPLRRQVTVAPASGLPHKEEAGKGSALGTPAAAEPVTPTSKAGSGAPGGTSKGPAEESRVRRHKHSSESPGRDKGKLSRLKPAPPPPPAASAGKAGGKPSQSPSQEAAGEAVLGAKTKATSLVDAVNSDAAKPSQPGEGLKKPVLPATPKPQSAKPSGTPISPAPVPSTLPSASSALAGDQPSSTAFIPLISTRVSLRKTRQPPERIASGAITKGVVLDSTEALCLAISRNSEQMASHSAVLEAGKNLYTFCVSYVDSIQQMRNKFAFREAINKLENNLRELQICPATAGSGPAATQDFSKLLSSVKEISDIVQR

CN1C(=O)[C@@H](N2CCc3c(nn(Cc4ccccc4)c3C(N)=O)C2=O)COc2cc(Cl)ccc21 [Compound 10, (S)-2-benzyl-6-(8-chloro-5-methyl-4-oxo-2,3,4,5-tetrahydrobenzo[b][1,4]oxazepin-3-yl)-7-oxo-4,5,6,7-tetrahydro-2H-pyrazolo[3,4-c]pyridine-3-carboxamide]
Percent Control [1]: 97%
receptor occupancy at 1 µM [2]: -8.73%
receptor occupancy at 1 µM [3]: 16%
receptor occupancy at 1 µM [4]: -3.32%
receptor occupancy at 1 µM [5]: 4.81%
receptor occupancy at 1 µM [6]: -1.51%
receptor occupancy at 1 µM [7]: -4.28%
receptor occupancy at 1 µM [8]: -4.01%
receptor occupancy at 1 µM [9]: 19%
receptor occupancy at 1 µM [10]: -4.29%
receptor occupancy at 1 µM [11]: -4.57%
receptor occupancy at 1 µM [12]: -0.25%
receptor occupancy at 1 µM [13]: -2.91%
receptor occupancy at 1 µM [14]: 7.3%
receptor occupancy at 1 µM [15]: 8.46%
receptor occupancy at 1 µM [16]: -6.3%
receptor occupancy at 1 µM [17]: -0.896%
receptor occupancy at 1 µM [18]: 2.69%
receptor occupancy at 1 µM [19]: 1.52%
receptor occupancy at 1 µM [20]: 4.93%
receptor occupancy at 1 µM [21]: -5.78%
remaining activity at 0.1 µM [22]: 100%
remaining activity at 1 µM [23]: 100%
remaining binding at 1 µM [24]: 82%
remaining binding at 1 µM [25]: 69%
remaining binding at 1 µM [26]: 96%
remaining binding at 1 µM [27]: 85%
remaining binding at 1 µM [28]: 83%
remaining binding at 1 µM [29]: 88%
remaining binding at 0.1 µM [30]: 92%
remaining binding at 1 µM [31]: 94%
remaining binding at 0.1 µM [32]: 86%
remaining binding at 0.1 µM [33]: 80%
